Assay [1] has as its target T1, panel of 442 kinases (Homo sapiens, UniProt P10721, A829P).
T1 construct: purchased KINOMEscan
It counts as binding. Conditions: Compound Concentration 10 µM. From the text: (§1) We assessed the selectivity of members of this scaffold using the KINOMEscan methodology across a near comprehensive panel of 442 kinases [[18,27]].

The target of assay [2] is T2, panel of 442 kinases (Homo sapiens, UniProt Q9BZL6).
T2 construct: purchased KINOMEscan
T2 sequence (Q9BZL6 1-878): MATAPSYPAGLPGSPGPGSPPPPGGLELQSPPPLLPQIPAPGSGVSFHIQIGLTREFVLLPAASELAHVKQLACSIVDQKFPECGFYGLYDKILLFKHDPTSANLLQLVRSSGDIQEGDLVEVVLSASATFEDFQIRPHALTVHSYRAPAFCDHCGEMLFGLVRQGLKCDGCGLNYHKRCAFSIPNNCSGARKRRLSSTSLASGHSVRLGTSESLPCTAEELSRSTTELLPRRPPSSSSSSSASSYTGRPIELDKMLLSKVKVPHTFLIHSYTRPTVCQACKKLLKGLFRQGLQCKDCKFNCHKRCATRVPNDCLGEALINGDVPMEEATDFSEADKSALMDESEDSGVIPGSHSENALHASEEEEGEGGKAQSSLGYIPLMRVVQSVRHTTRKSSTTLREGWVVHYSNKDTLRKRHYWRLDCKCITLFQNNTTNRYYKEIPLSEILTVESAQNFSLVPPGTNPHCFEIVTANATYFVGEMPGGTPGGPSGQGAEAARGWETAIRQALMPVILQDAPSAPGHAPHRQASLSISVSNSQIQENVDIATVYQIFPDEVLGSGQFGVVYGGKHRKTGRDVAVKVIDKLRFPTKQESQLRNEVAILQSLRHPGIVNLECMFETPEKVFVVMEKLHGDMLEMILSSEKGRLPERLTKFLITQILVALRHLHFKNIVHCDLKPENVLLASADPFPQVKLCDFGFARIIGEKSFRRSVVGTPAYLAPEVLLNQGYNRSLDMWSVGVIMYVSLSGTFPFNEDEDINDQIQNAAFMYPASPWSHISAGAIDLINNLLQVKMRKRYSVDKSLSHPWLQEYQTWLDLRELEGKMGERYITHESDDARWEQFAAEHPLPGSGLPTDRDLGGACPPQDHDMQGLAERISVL
The class given is binding. Conditions: Compound Concentration 10 µM.
Excerpt: as §1

Each structure is given as a SMILES string.

T1 sequence (P10721 26-976 A829P): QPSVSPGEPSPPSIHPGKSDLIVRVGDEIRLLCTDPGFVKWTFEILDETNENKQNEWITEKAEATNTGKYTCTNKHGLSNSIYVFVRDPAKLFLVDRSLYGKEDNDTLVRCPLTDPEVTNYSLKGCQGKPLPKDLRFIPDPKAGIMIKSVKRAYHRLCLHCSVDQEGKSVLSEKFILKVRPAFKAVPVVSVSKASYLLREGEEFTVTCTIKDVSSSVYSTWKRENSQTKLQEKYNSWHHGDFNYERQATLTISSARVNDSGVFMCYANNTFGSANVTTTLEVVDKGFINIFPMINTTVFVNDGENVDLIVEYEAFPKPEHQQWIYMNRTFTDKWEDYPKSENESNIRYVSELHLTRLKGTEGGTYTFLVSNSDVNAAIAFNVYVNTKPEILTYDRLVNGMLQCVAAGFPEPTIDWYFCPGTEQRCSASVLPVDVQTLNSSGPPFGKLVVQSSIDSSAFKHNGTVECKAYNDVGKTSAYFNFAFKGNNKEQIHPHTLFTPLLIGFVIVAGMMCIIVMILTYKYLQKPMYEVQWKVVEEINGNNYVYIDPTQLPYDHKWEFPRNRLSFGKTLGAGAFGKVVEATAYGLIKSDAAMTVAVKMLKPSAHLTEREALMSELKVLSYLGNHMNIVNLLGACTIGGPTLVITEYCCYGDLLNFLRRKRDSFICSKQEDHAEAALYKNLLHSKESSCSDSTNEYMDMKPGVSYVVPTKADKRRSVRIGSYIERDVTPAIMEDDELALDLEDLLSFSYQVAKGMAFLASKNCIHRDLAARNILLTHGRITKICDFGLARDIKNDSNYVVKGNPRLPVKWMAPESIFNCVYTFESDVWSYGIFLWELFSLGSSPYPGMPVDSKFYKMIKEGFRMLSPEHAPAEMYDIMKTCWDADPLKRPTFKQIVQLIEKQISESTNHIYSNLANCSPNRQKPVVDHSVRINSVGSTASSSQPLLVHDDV

With `COc1cc(C(=O)N2CCC(N3CCN(C)CC3)CC2)ccc1Nc1ncc2c(n1)N(C1CCCC1)c1ccccc1C(=O)N2C` [Compound 25, 11-cyclopentyl-2-((2-methoxy-4-(4-(4-methylpiperazin-1-yl)piperidine-1-carbonyl)phenyl)amino)-5-methyl-5H-benzo[e]pyrimido[5,4-b][1,4]diazepin-6(11H)-one], the “KINOMEscan: KIT(A829P)” value in assay [1] is listed as 95. The “KINOMEscan: PRKD2” value in assay [2] is on record as 87.
Turning to `COc1cc(C(=O)N2CCC(N3CCN(C)CC3)CC2)ccc1Nc1ncc2c(n1)N1CCc3cccc(c31)C(=O)N2C` [Compound 24], the “KINOMEscan: PRKD2” value in assay [2] worked out at 30.
In the case of `COc1cc(C(=O)N2CCC(N3CCN(C)CC3)CC2)ccc1Nc1ncc2c(n1)N(C)c1ccccc1C(=O)N2C` [15 (LRRK2-IN-1)], the “KINOMEscan: KIT(A829P)” value in assay [1] came to 100. The “KINOMEscan: PRKD2” value in assay [2] came out at 59.
Consider `CCOc1cc(C(=O)N2CCC(N3CCN(C)CC3)CC2)ccc1Nc1ncc2c(n1)N(C1CCCC1)c1ccccc1C(=O)N2C` [Compound 26], for which the “KINOMEscan: KIT(A829P)” value in assay [1] was 74. The “KINOMEscan: PRKD2” value in assay [2] is reported as 100.

For the origin of these results see PMC3914206.
